Assay [1] has as its system COLO205 colon adenocarcinoma cells (B-Raf V600E mutation). Kind of assay: COLO205 cell growth inhibition (ATPlite). Format: cell-based. The settings on record: Homo sapiens, COLO 205, 72 h, 3 days. In short, it runs like this:
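Cells treated for 3 days at 37 °C, 5% CO2 with an 8-point 1:3 dilution series, top final concentration 10 μM, DMSO control. ATPlite luminescence used as a measure of cell number; IC50 from reading versus concentration.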
In general terms: ATP-based viability assays read luminescence as a measure of living cells.

In assay [2] the target is B-Raf V600E (Homo sapiens (Human), UniProt P15056, V600E). Kind of assay: B-Raf V600E kinase biochemical activity assay (AlphaScreen, biotin-MEK1 substrate). The settings on record: 100 μM ATP. In short, it runs like this: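 IC50 was derived from AlphaScreen signal (anti-phospho-MEK1/2 antibody with streptavidin donor and Protein A acceptor beads, 3 h) across 8 compound concentrations. The kinase step ran 45 min at room temperature: 0.1 ng B-Raf V600E, 100 nM biotin-MEK1, 100 μM final ATP, pH 7.0 HEPES with MgCl2/MnCl2.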
Sequence of B-Raf V600E (P15056 whole entry V600E): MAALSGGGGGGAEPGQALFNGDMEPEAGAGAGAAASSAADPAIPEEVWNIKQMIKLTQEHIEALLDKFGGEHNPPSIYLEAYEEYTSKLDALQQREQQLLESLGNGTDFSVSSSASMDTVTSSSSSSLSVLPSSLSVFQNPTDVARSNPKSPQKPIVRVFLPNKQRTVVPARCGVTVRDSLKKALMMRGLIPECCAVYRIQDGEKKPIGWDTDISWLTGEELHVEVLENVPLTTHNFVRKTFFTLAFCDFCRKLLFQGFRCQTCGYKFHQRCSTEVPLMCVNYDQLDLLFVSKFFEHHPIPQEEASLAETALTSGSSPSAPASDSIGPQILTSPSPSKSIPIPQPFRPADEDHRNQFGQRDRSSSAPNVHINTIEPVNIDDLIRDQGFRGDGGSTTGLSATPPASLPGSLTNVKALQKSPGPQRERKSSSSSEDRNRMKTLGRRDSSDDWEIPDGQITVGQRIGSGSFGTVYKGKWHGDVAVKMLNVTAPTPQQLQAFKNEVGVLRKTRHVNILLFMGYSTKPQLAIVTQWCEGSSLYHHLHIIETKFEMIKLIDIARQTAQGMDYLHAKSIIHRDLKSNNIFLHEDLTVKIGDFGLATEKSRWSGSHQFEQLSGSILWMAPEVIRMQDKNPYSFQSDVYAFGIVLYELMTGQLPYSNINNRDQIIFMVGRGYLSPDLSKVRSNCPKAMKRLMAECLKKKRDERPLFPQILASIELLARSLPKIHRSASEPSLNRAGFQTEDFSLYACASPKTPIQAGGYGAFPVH
For orientation: In Alpha technology, singlet oxygen from a donor bead excites a nearby acceptor bead.

Some results are limits rather than exact numbers.

The IC50 is the midpoint of a concentration-inhibition curve. Lower therefore signals inhibition by little substance.

As to `CCN(C)S(=O)(=O)Nc1ccc(F)c(C(=O)c2c[nH]c3ncc(-c4ccnc(F)c4)cc23)c1F` [Compound P-0283, 3-[3-[[ethyl(methyl)sulfamoyl]amino]-2,6-difluoro-benzoyl]-5-(2-fluoro-4-pyridyl)-1H-pyrrolo[2,3-b]pyridine], the values for the IC50 in assay [1] and in assay [2] were less than 1 µM and less than 0.1 µM, respectively.
As to `CN1CCN(c2cc(-c3cnc4[nH]cc(C(=O)c5c(F)ccc(NS(=O)(=O)N6CCCC6)c5F)c4c3)ccn2)CC1` [Compound P-0285, N-[2,4-difluoro-3-[5-[2-(4-methylpiperazin-1-yl)-4-pyridyl]-1H-pyrrolo[2,3-b]pyridine-3-carbonyl]phenyl]pyrrolidine-1-sulfonamide], the IC50 is less than 1 µM in assay [1] and less than 0.1 µM in assay [2].
Take `O=C(c1c(F)ccc(NS(=O)(=O)N2CC[C@H](F)C2)c1F)c1c[nH]c2ncc(-c3cnc(C4CC4)nc3)cc12` [Compound P-0289, (3S)—N-[3-[5-(2-cyclopropylpyrimidin-5-yl)-1H-pyrrolo[2,3-b]pyridine-3-carbonyl]-2,4-difluoro-phenyl]-3-fluoro-pyrrolidine-1-sulfonamide]: the IC50 in assay [1] is less than 1 µM; in assay [2] it was less than 0.1 µM.
Regarding `CCN(C)S(=O)(=O)Nc1ccc(F)c(C(=O)c2c[nH]c3ncc(-c4cnc(N5CCCC5)nc4)cc23)c1F` [Compound P-0293, 3-[3-[[ethyl(methyl)sulfamoyl]amino]-2,6-difluoro-benzoyl]-5-(2-pyrrolidin-1-ylpyrimidin-5-yl)-1H-pyrrolo[2,3-b]pyridine], the IC50 is less than 1 µM in assay [1] and less than 0.1 µM in assay [2].
The corresponding values for `CCN(C)S(=O)(=O)Nc1cccc(C(=O)c2c[nH]c3ncc(C4CCC4)cc23)c1F` [Compound P-0297, 5-cyclobutyl-3-[3-[[ethyl(methyl)sulfamoyl]amino]-2-fluoro-benzoyl]-1H-pyrrolo[2,3-b]pyridine] are greater than 1 µM and less than 0.1 µM.
The corresponding values for `CCN(C)S(=O)(=O)Nc1cccc(C(=O)c2c[nH]c3ncc(C4CC4)cc23)c1F` [Compound P-0298, 5-cyclopropyl-3-[3-[[ethyl(methyl)sulfamoyl]amino]-2-fluoro-benzoyl]-1H-pyrrolo[2,3-b]pyridine] are greater than 1 µM and less than 0.1 µM.
For the compound `Nc1cc(-c2cnc3[nH]cc(C(=O)c4cccc(NS(=O)(=O)N5CCCC5)c4F)c3c2)ncn1` [Compound P-0299, N-[3-[5-(6-aminopyrimidin-4-yl)-1H-pyrrolo[2,3-b]pyridine-3-carbonyl]-2-fluoro-phenyl]pyrrolidine-1-sulfonamide], the IC50 was greater than 1 µM in assay [1] and less than 0.1 µM in assay [2].
As for `CCN(C)S(=O)(=O)Nc1ccc(F)c(C(=O)c2c[nH]c3ncc(-c4ccc(C(F)(F)F)cc4)cc23)c1F` [Compound P-0301, 3-[3-[[ethyl(methyl)sulfamoyl]amino]-2,6-difluoro-benzoyl]-5-[4-(trifluoromethyl)phenyl]-1H-pyrrolo[2,3-b]pyridine], the IC50 in assay [1] was greater than 1 µM; in assay [2], less than 0.1 µM.
In the case of `CCN(C)S(=O)(=O)Nc1ccc(F)c(C(=O)c2c[nH]c3ncc(-c4ccc(N5CCCC5)cc4)cc23)c1F` [Compound P-0303, 3-[3-[[ethyl(methyl)sulfamoyl]amino]-2,6-difluoro-benzoyl]-5-(4-pyrrolidin-1-ylphenyl)-1H-pyrrolo[2,3-b]pyridine], the IC50 is greater than 1 µM in assay [1] and less than 0.1 µM in assay [2].
The corresponding values for `CCN(C)S(=O)(=O)Nc1ccc(F)c(C(=O)c2c[nH]c3ncc(-c4ccc(-c5nnc(C)o5)cc4)cc23)c1F` [Compound P-0304, 2-[4-[3-[3-[[ethyl(methyl)sulfamoyl]amino]-2,6-difluoro-benzoyl]-1H-pyrrolo[2,3-b]pyridin-5-yl]phenyl]-5-methyl-1,3,4-oxadiazole] are less than 1 µM and less than 0.1 µM.
For `CCN(C)S(=O)(=O)Nc1ccc(F)c(C(=O)c2c[nH]c3ncc(-c4ccc(-c5nnc(NC)s5)cc4)cc23)c1F` [Compound P-0305, 2-[4-[3-[3-[[ethyl(methyl)sulfamoyl]amino]-2,6-difluoro-benzoyl]-1H-pyrrolo[2,3-b]pyridin-5-yl]phenyl]-5-(methylamino)-1,3,4-thiadiazole], in that order: less than 1 µM and less than 0.1 µM.
On to `CCN(C)S(=O)(=O)Nc1ccc(F)c(C(=O)c2c[nH]c3ncc(-c4cncc(C(C)(C)O)c4)cc23)c1F` [Compound P-0306, 3-[3-[[ethyl(methyl)sulfamoyl]amino]-2,6-difluoro-benzoyl]-5-[5-(1-hydroxy-1-methyl-ethyl)-3-pyridyl]-1H-pyrrolo[2,3-b]pyridine], for which the figures for the IC50 in assay [1] and in assay [2] were less than 1 µM and less than 0.1 µM, respectively.
With `CCN(C)S(=O)(=O)Nc1ccc(F)c(C(=O)c2c[nH]c3ncc(-c4ccc(C(C)(C)O)nc4)cc23)c1F` [Compound P-0307, 3-[3-[[ethyl(methyl)sulfamoyl]amino]-2,6-difluoro-benzoyl]-5-[6-(1-hydroxy-1-methyl-ethyl)-3-pyridyl]-1H-pyrrolo[2,3-b]pyridine], the IC50 in assay [1] was less than 1 µM; in assay [2], less than 0.1 µM.
On to `CCN(CC)c1ccc(-c2cnc3[nH]cc(C(=O)c4c(F)ccc(NS(=O)(=O)N(C)CC)c4F)c3c2)cc1` [Compound P-0308, 5-[4-(diethylamino)phenyl]-3-[3-[[ethyl(methyl)sulfamoyl]amino]-2,6-difluoro-benzoyl]-1H-pyrrolo[2,3-b]pyridine], for which the values for the IC50 in assay [1] and in assay [2] were less than 1 µM and less than 0.1 µM, respectively.
With `CCN(C)S(=O)(=O)Nc1ccc(F)c(C(=O)c2c[nH]c3ncc(-c4ccc5c(c4)NC(=O)C5)cc23)c1F` [Compound P-0309, 3-[3-[[ethyl(methyl)sulfamoyl]amino]-2,6-difluoro-benzoyl]-5-(2-oxoindolin-6-yl)-1H-pyrrolo[2,3-b]pyridine], the values for the IC50 in assay [1] and in assay [2] were less than 1 µM and less than 0.1 µM, respectively.
Consider `CCN(C)S(=O)(=O)Nc1ccc(F)c(C(=O)c2c[nH]c3ncc(-c4ccc(-c5noc(C)n5)s4)cc23)c1F` [Compound P-0310, 3-[5-[3-[3-[[ethyl(methyl)sulfamoyl]amino]-2,6-difluoro-benzoyl]-1H-pyrrolo[2,3-b]pyridin-5-yl]-2-thienyl]-5-methyl-1,2,4-oxadiazole], for which the IC50 in assay [1] is less than 1 µM; in assay [2], less than 0.1 µM.
On to `CCN(C)S(=O)(=O)Nc1ccc(F)c(C(=O)c2c[nH]c3ncc(-c4ccc5nc(N)ncc5c4)cc23)c1F` [Compound P-0311, 2-amino-6-[3-[3-[[ethyl(methyl)sulfamoyl]amino]-2,6-difluoro-benzoyl]-1H-pyrrolo[2,3-b]pyridin-5-yl]quinazoline], for which the figures for the IC50 in assay [1] and in assay [2] were less than 1 µM and less than 0.1 µM, respectively.
Regarding `CCN(C)S(=O)(=O)Nc1ccc(F)c(C(=O)c2c[nH]c3ncc(-c4ccc5nc(N(C)C)ncc5c4)cc23)c1F` [Compound P-0313, 2-(dimethylamino)-6-[3-[3-1[[ethyl(methyl)sulfamoyl]amino]-2,6-difluoro-benzoyl]-1H-pyrrolo[2,3-b]pyridin-5-yl]quinazoline], the IC50 in assay [1] is less than 1 µM; in assay [2], less than 0.1 µM.
The corresponding values for `CCN(C)S(=O)(=O)Nc1ccc(F)c(C(=O)c2c[nH]c3ncc(-c4ccc(C5(O)CC5)cc4)cc23)c1F` [Compound P-0314, 3-[3-1[[ethyl(methyl)sulfamoyl]amino]-2,6-difluoro-benzoyl]-5-[4-(1-hydroxycyclopropyl)phenyl]-1H-pyrrolo[2,3-b]pyridine] are less than 1 µM and less than 0.1 µM.
Turning to `CCN(C)S(=O)(=O)Nc1ccc(F)c(C(=O)c2c[nH]c3ncc(-c4cncs4)cc23)c1F` [Compound P-0315, 5-[3-[3-[[ethyl(methyl)sulfamoyl]amino]-2,6-difluoro-benzoyl]-1H-pyrrolo[2,3-b]pyridin-5-yl]thiazole], the IC50 in assay [1] is less than 1 µM; in assay [2], less than 0.1 µM.
The corresponding values for `CCN(C)S(=O)(=O)Nc1ccc(F)c(C(=O)c2c[nH]c3ncc(-c4csc(C(C)(C)O)n4)cc23)c1F` [Compound P-0316, 4-[3-[3-[[ethyl(methyl)sulfamoyl]amino]-2,6-difluoro-benzoyl]-1H-pyrrolo[2,3-b]pyridin-5-yl]-2-(1-hydroxy-1-methyl-ethyl)thiazole] are less than 1 µM and less than 0.1 µM.
For `CCN(C)S(=O)(=O)Nc1ccc(F)c(C(=O)c2c[nH]c3ncc(-c4ccc(OC)nn4)cc23)c1F` [Compound P-0317, 3-[3-[[ethyl(methyl)sulfamoyl]amino]-2,6-difluoro-benzoyl]-5-(6-methoxypyridazin-3-yl)-1H-pyrrolo[2,3-b]pyridine], in that order: less than 1 µM and less than 0.1 µM.
The corresponding values for `O=C(c1c(F)ccc(NS(=O)(=O)N2CCCC2)c1F)c1c[nH]c2ncc(-c3cc(N4CCOCC4)ncn3)cc12` [Compound P-0318, N-[2,4-difluoro-3-[5-(6-morpholinopyrimidin-4-yl)-1H-pyrrolo[2,3-b]pyridine-3-carbonyl]phenyl]pyrrolidine-1-sulfonamide] are less than 1 µM and less than 0.1 µM.
In the case of `O=C(c1cccc(NS(=O)(=O)N2CCCC2)c1F)c1c[nH]c2ncc(-c3cc(N4CCOCC4)ncn3)cc12` [Compound P-0321, N-[2-fluoro-3-[5-(6-morpholinopyrimidin-4-yl)-1H-pyrrolo[2,3-b]pyridine-3-carbonyl]phenyl]pyrrolidine-1-sulfonamide], the IC50 in assay [1] is less than 1 µM; in assay [2], less than 0.1 µM.
Regarding `CN1CCN(c2cc(-c3cnc4[nH]cc(C(=O)c5cccc(NS(=O)(=O)N6CCCC6)c5F)c4c3)ncn2)CC1` [Compound P-0322, N-[2-fluoro-3-[5-[6-(4-methylpiperazin-1-yl)pyrimidin-4-yl]-1H-pyrrolo[2,3-b]pyridine-3-carbonyl]phenyl]pyrrolidine-1-sulfonamide], the IC50 was less than 1 µM in assay [1] and less than 0.1 µM in assay [2].

The values above are taken from patent US20230277534A1 (Plexxikon Inc., priority 2011, published 2023).
